In ChEMBL document CHEMBL5120885, “Neopetrosins A-D and Haliclorensin D, Indole-C-Mannopyranosides and a Diamine Alkaloid Isolated from the South China Sea Marine Sponge Neopetrosia chaliniformis” (J Nat Prod, 2022):
Calls of active or inactive are those of the source. The rule behind the calls is not given here.

Key:
Assay type in all cases: functional, organism-based
Danio rerio [1] = species: Danio rerio; test: Hepatoprotective activity in ethanol induced liver injury in transgenic zebrafish T3 (L- FABP:EGFP) model assessed as change in liver size at 20 uM incubated for 72 hrs by fluorescence microscopic analysis
Danio rerio [2] = species: Danio rerio; test: Hepatoprotective activity in isoniazid induced liver injury in transgenic zebrafish T3 (L- FABP:EGFP) model assessed as change in liver size at 20 uM incubated for 72 hrs by fluorescence microscopic analysis
Danio rerio [3] = species: Danio rerio; test: Hepatoprotective activity in isoniazid induced liver injury in transgenic zebrafish T3 (L- FABP:EGFP) model assessed as change in liver size at 50 uM incubated for 72 hrs by fluorescence microscopic analysis
Danio rerio [4] = species: Danio rerio; test: Hepatoprotective activity in ethanol induced liver injury in transgenic zebrafish T3 (L- FABP:EGFP) model assessed as change in liver size at 50 uM incubated for 72 hrs by fluorescence microscopic analysis

SMILES | Activity (Danio rerio [1]) | Activity (Danio rerio [2]) | Activity (Danio rerio [3]) | Activity (Danio rerio [4])
NCC(=O)c1c([C@H]2O[C@H](CO)[C@@H](O)[C@H](O)[C@@H]2O)[nH]c2ccccc12 | Active | Active | – | –
O=C1O[C@H]2[C@@H](O)[C@H](O)[C@@H](CO)O[C@@H]2c2[nH]c3ccccc3c21 | Active | Active | – | –
C[C@@H]1NC(=O)[C@H](Cc2c([C@H]3O[C@H](CO)[C@@H](O)[C@H](O)[C@@H]3O)[nH]c3ccccc23)NC1=O | Active | Active | – | –
C[S+](CC[C@H](N)C(=O)[O-])C[C@H]1O[C@@H](n2cnc3c(N)ncnc32)[C@H](O)[C@@H]1O (stereo partly drawn) | – | – | Active | Active
